According to ChEMBL document CHEMBL1148857, “In vitro and in vivo profile of 5-[(4'-trifluoromethyl-biphenyl-2-carbonyl)-amino]-1H-indole-2-carboxylic acid benzylmethyl carbamoylamide (dirlotapide), a novel potent MTP inhibitor for obesity” (Bioorg Med Chem Lett, 2007):
The source made the active and inactive calls. The calls are words filed in the database; no cut-off is given here.

Tests used:
CYP2C9 = assay: Metabolic stability in human liver microsome at 0.5 uM in presence of 5 uM CYP2C9 inhibitor sulfaphenazole; assay type: ADME; settings: liver microsomes, with 5 uM sulfaphenazole (CYP2C9 inhibitor)
[1] = Ratio of drug level in blood to plasma in dog; assay type: ADME, cell-free, Canis lupus familiaris; settings: blood and plasma, read-out: BPR
[2] = biological target: B1 bradykinin receptor (Homo sapiens) (UniProt P46663); assay: Inhibition of bradykinin B1 receptor at 1 uM
[3] = AUC (0 to infinity) in monkey at 0.5 mg/kg, iv; assay type: ADME, organism-based, Macaca mulatta; parameters: time infinity, dose 0.5 mg/kg, route intravenous; settings: rhesus monkey, plasma
Homo sapiens [4] = species on record: Homo sapiens; assay: Inhibition of central benzodiazepine receptor at 1 uM
[5] = Tmax in rat at 300 mg/kg, po; assay type: ADME, organism-based; parameters: dose 300 mg/kg, route oral; settings: in vivo
Canis familiaris [6] = assay: Effect on body weight in obese Beagle dog assessed as weight loss at 0.39 mg/kg, po after 3 months relative to control; assay type: functional, Canis lupus familiaris
[7] = biological target: Adrenergic receptor alpha-2 (Homo sapiens) (UniProt P08913+P18825+P18089); assay: Inhibition of adrenergic a2 receptor at 1 uM; assay type: protein assay
[8] = Volume of distribution at steady state in rat at 5 mg/kg, iv; assay type: ADME, organism-based; parameters: dose 5 mg/kg, route intravenous; settings: in vivo, read-out: Vdss
[9] = biological target: Platelet-activating factor receptor (Homo sapiens) (UniProt P25105); assay: Inhibition of platelet activating factor receptor at 1 uM
[10] = Half life in monkey at 0.5 mg/kg, iv; assay type: ADME, organism-based, Macaca mulatta; parameters: dose 0.5 mg/kg, route intravenous; settings: rhesus monkey, in vivo
Homo sapiens [11] = species on record: Homo sapiens; assay: Inhibition of AMPA receptor at 1 uM
[12] = AUC (0 to infinity) in Beagle dog at 0.5 mg/kg, po; assay type: ADME, organism-based, Canis lupus familiaris; parameters: time infinity, dose 0.5 mg/kg, route oral; settings: plasma
Cytochrome P450 3A4 = Cytochrome P450 3A4 (Homo sapiens, UniProt P08684); assay: Inhibition of CYP3A4; assay type: ADME
[13] = Tmax in rat at 30 mg/kg, po; assay type: ADME, organism-based; parameters: dose 30 mg/kg, route oral; settings: in vivo
Mus musculus = species on record: Mus musculus; assay: Inhibition of hepatic MTP in mouse assessed as reduction of triglyceride; assay type: functional
Canis familiaris [14] = assay: Decrease in food intake in obese Beagle dog at 0.39 mg/kg, po after 3 months; assay type: functional, Canis lupus familiaris; parameters: scale not given: the % may be the effect or the level left
[15] = Cmax in Beagle dog at 0.5 mg/kg, po; assay type: ADME, organism-based, Canis lupus familiaris; parameters: dose 0.5 mg/kg, route oral; settings: in vivo
Cytochrome P450 2C19 = Cytochrome P450 2C19 (Homo sapiens, UniProt P33261); assay: Inhibition of CYP2C19; assay type: ADME
Homo sapiens [16] = species on record: Homo sapiens; assay: Inhibition of muscle nicotinic receptor at 1 uM
[17] = biological target: Adenosine receptor A1 (Homo sapiens) (UniProt P30542); assay: Inhibition of adenosine A1 receptor at 1 uM
[18] = Half life in Beagle dog at 5 mg/kg, po; assay type: ADME, organism-based, Canis lupus familiaris; parameters: dose 5 mg/kg, route oral; settings: in vivo
[19] = Permeability from apical to basolateral side of the Caco-2 cell membrane at 1 uM; assay type: ADME, cell-based; settings: human
[20] = biological target: Delta-type opioid receptor (Homo sapiens) (UniProt P41143); assay: Inhibition of delta opioid receptor at 1 uM
[21] = AUC (0 to t) in Beagle dog at 0.5 mg/kg, iv; assay type: ADME, organism-based, Canis lupus familiaris; parameters: dose 0.5 mg/kg, route intravenous; settings: plasma
[22] = biological target: Adenosine receptor A3 (Homo sapiens) (UniProt P0DMS8); assay: Inhibition of adenosine A3 receptor at 1 uM
[23] = Half life in rat at 30 mg/kg, po; assay type: ADME, organism-based; parameters: dose 30 mg/kg, route oral; settings: in vivo
[24] = biological target: 5-hydroxytryptamine receptor 1A (Homo sapiens) (UniProt P08908); assay: Inhibition of 5HT1A receptor at 1 uM
[25] = AUC (0 to infinity) in portal cannulated Beagle dog at 1 mg/kg, iv; assay type: ADME, organism-based, Canis lupus familiaris; parameters: time infinity, dose 1 mg/kg, route intravenous; settings: plasma
CYP2C19 = assay: Metabolic stability in human liver microsome at 0.5 uM in presence of 200 uM CYP2C19 inhibitor (S)-mephenytoin; assay type: ADME; settings: liver microsomes, with 200 uM (S)-mephenytoin (CYP2C19 inhibitor)
[26] = biological target: Type-2 angiotensin II receptor (Homo sapiens) (UniProt P50052); assay: Inhibition of AT2 receptor at 1 uM
[27] = Plasma clearance in monkey at 0.5 mg/kg, iv; assay type: ADME, organism-based, Macaca mulatta; parameters: dose 0.5 mg/kg, route intravenous; settings: rhesus monkey
Plasma = assay: Percentage unbound ligand in rat blood at 1 uM; assay type: ADME, cell-free
[28] = Half life in portal cannulated Beagle dog at 1 mg/kg, po; assay type: ADME, organism-based, Canis lupus familiaris; parameters: dose 1 mg/kg, route oral; settings: in vivo
[29] = Bioavailability in rat at 300 mg/kg, po; assay type: ADME, organism-based; settings: in vivo
[30] = Plasma clearance in Beagle dog at 1 mg/kg, iv; assay type: ADME, organism-based, Canis lupus familiaris; parameters: dose 1 mg/kg, route intravenous
[31] = Bioavailability in Beagle dog at 0.5 mg/kg, po; assay type: ADME, organism-based, Canis lupus familiaris; settings: in vivo
[32] = AUC (0 to infinity) in rat at 0.3 mg/kg, iv; assay type: ADME, organism-based; parameters: time infinity, dose 0.3 mg/kg, route intravenous; settings: plasma
[33] = biological target: 5-hydroxytryptamine receptor 7 (Homo sapiens) (UniProt P34969); assay: Inhibition of 5HT7 receptor at 1 uM
[34] = Permeability from basolateral to apical side of the Caco-2 cell membrane at 1 uM in presence of calcium; assay type: ADME, cell-based; settings: human
[35] = Half life in Beagle dog at 1 mg/kg, iv; assay type: ADME, organism-based, Canis lupus familiaris; parameters: dose 1 mg/kg, route intravenous; settings: in vivo
[36] = Plasma clearance in rat at 1 mg/kg, iv; assay type: ADME, organism-based; parameters: dose 1 mg/kg, route intravenous
[37] = Plasma clearance in portal cannulated Beagle dog at 1 mg/kg, iv; assay type: ADME, organism-based, Canis lupus familiaris; parameters: dose 1 mg/kg, route intravenous
[38] = Volume of distribution at steady state in rat at 1 mg/kg, iv; assay type: ADME, organism-based; parameters: dose 1 mg/kg, route intravenous; settings: in vivo, read-out: Vdss
Canis familiaris [39] = assay: Decrease in cholesterol level in obese Beagle dog at 0.39 mg/kg, po after 3 months; assay type: functional, Canis lupus familiaris; parameters: scale not given: the % may be the effect or the level left
[40] = biological target: Muscarinic acetylcholine receptor M2 (Homo sapiens) (UniProt P08172); assay: Inhibition of muscarinic M2 receptor at 1 uM
[41] = biological target: Histamine H1 receptor (Homo sapiens) (UniProt P35367); assay: Inhibition of histamine H1 receptor at 1 uM
[42] = AUC (0 to t) in rat at 5 mg/kg, iv; assay type: ADME, organism-based; parameters: dose 5 mg/kg, route intravenous; settings: plasma
[43] = AUC (0 to infinity) in Beagle dog at 5 mg/kg, po; assay type: ADME, organism-based, Canis lupus familiaris; parameters: time infinity, dose 5 mg/kg, route oral; settings: plasma
[44] = biological target: Beta-1 adrenergic receptor (Homo sapiens) (UniProt P08588); assay: Inhibition of adrenergic b1 receptor at 1 uM
[45] = Half life in rat at 0.3 mg/kg, iv; assay type: ADME, organism-based; parameters: dose 0.3 mg/kg, route intravenous; settings: in vivo
Homo sapiens [46] = species on record: Homo sapiens; assay: Inhibition of IKr potassium channel at 1 uM
[47] = Volume of distribution at steady state in Beagle dog at 0.5 mg/kg, iv; assay type: ADME, organism-based, Canis lupus familiaris; parameters: dose 0.5 mg/kg, route intravenous; settings: in vivo, read-out: Vdss
[48] = Cmax in rat at 300 mg/kg, po; assay type: ADME, organism-based; parameters: dose 300 mg/kg, route oral; settings: in vivo
[49] = biological target: Adrenergic receptor alpha-1 (Homo sapiens) (UniProt P35348+P25100+P35368); assay: Inhibition of adrenergic a1 receptor at 1 uM; assay type: protein assay
Homo sapiens [50] = species on record: Homo sapiens; assay: Inhibition of GABA receptor at 1 uM
[51] = biological target: Voltage-gated L-type calcium channel (Homo sapiens, UniProt Q13936+Q13698+Q01668+O60840); assay: Inhibition of L-type calcium channel at 1 uM
[52] = Cmax in rat at 30 mg/kg, po after 2.8 hrs; assay type: ADME, organism-based; parameters: dose 30 mg/kg, route oral; settings: in vivo
[53] = AUC (0 to infinity) in rat at 3 mg/kg, po; assay type: ADME, organism-based; parameters: time infinity, dose 3 mg/kg, route oral; settings: plasma
[54] = Intrinsic clearance in human microsomes; assay type: ADME, Microsome
[55] = Plasma clearance in rat at 5 mg/kg, iv; assay type: ADME, organism-based; parameters: dose 5 mg/kg, route intravenous

B1 bradykinin receptor (Homo sapiens), sequence (P46663 whole entry): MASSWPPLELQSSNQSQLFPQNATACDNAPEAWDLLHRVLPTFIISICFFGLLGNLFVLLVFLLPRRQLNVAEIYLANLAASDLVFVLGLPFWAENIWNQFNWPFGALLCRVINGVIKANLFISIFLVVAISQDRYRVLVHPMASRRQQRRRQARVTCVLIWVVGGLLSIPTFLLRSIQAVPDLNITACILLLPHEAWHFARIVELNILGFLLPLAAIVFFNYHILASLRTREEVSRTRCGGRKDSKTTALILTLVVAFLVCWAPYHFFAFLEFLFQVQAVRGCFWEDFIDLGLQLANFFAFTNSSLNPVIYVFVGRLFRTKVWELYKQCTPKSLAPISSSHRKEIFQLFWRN
Type-2 angiotensin II receptor (Homo sapiens), sequence (P50052 whole entry): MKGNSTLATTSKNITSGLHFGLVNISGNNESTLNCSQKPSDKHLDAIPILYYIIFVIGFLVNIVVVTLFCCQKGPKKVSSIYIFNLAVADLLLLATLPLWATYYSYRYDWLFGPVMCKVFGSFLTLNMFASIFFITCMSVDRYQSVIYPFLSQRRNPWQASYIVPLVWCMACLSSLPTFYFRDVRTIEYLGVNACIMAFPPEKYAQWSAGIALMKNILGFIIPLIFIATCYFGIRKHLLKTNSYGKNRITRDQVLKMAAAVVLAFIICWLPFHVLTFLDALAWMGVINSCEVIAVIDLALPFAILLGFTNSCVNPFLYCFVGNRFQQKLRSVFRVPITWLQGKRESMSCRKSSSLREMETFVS
Adenosine receptor A1 (Homo sapiens), sequence (P30542 whole entry): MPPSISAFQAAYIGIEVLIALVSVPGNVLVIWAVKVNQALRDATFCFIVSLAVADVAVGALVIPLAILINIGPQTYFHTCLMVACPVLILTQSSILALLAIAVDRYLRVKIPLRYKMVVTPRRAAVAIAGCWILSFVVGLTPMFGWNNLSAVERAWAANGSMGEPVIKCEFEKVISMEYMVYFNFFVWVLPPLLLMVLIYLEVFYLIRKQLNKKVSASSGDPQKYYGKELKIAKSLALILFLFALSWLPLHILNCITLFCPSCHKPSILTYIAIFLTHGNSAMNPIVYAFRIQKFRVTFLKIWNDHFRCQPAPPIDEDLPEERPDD
5-hydroxytryptamine receptor 1A (Homo sapiens), sequence (P08908 whole entry): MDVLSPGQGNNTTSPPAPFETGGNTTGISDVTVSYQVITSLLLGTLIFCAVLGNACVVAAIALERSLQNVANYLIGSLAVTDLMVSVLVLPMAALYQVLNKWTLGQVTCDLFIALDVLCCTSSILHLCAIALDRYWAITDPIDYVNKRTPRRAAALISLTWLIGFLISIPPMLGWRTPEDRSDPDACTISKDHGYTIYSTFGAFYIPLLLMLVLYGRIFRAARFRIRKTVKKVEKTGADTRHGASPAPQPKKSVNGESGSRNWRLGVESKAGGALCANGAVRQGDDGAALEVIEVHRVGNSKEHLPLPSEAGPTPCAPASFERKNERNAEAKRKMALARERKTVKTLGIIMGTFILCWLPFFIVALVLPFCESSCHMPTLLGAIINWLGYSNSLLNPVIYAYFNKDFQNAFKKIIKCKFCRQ
Muscarinic acetylcholine receptor M2 (Homo sapiens), sequence (P08172 whole entry): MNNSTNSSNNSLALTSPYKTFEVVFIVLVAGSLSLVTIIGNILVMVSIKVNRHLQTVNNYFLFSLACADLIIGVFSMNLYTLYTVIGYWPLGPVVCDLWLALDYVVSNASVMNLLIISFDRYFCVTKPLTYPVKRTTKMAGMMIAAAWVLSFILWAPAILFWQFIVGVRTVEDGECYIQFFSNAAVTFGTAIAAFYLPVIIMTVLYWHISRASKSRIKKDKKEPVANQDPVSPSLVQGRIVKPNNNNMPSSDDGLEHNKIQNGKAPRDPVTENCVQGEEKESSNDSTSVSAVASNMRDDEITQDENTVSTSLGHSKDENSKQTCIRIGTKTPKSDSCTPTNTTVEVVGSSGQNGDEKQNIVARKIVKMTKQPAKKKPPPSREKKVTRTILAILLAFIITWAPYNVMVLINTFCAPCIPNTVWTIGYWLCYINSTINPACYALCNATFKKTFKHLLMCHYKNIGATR
Cytochrome P450 2C19, sequence (P33261 whole entry): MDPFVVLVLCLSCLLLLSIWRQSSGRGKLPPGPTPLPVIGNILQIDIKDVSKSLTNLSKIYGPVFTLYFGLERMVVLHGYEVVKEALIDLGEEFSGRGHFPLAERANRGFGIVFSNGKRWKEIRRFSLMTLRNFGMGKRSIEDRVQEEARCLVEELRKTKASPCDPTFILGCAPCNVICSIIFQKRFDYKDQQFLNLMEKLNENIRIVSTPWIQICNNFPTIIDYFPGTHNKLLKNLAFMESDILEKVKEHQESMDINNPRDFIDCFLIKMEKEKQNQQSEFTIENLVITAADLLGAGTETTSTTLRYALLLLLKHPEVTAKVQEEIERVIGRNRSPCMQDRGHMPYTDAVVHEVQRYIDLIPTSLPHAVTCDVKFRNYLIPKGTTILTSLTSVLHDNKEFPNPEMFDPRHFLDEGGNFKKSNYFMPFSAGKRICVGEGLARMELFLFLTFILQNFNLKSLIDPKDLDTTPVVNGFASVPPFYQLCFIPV
Histamine H1 receptor (Homo sapiens), sequence (P35367 whole entry): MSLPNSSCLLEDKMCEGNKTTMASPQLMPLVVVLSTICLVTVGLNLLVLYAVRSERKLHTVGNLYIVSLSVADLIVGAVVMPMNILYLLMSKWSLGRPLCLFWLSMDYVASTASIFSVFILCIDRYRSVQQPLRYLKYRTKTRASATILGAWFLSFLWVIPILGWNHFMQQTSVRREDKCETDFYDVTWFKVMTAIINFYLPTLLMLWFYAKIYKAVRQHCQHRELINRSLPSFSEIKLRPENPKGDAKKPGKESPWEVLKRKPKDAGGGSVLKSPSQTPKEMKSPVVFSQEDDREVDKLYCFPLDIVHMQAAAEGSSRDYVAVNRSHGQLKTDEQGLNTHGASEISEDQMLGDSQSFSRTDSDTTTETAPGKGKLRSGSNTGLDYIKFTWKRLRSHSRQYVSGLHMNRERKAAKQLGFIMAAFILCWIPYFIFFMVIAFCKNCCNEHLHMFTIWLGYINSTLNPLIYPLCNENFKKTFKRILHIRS
Cytochrome P450 3A4, sequence (P08684 whole entry): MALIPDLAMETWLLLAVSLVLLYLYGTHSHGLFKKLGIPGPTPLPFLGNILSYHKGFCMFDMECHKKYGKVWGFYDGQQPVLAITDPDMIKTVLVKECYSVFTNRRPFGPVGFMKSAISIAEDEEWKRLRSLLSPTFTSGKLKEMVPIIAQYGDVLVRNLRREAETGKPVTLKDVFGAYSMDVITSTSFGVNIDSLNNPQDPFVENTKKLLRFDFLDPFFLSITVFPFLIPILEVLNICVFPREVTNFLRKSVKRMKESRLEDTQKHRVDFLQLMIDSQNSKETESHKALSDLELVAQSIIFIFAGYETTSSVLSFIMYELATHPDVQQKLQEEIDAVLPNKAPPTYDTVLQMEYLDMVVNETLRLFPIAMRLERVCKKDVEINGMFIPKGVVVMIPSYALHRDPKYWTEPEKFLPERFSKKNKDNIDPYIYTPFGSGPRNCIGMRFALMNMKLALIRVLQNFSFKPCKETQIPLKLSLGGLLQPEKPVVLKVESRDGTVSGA
5-hydroxytryptamine receptor 7 (Homo sapiens), sequence (P34969 whole entry): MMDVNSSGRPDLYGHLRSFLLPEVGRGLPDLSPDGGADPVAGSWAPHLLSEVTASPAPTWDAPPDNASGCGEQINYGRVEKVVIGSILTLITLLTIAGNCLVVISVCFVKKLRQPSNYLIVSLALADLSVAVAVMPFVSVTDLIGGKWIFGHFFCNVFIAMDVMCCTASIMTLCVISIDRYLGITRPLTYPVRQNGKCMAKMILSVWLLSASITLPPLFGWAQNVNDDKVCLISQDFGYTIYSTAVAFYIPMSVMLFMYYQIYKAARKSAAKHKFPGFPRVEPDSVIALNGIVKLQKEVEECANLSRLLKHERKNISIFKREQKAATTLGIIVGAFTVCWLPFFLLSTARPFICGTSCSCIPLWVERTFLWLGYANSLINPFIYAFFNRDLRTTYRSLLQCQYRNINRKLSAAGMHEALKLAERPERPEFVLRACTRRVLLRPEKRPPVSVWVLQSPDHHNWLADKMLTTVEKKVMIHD
Adenosine receptor A3 (Homo sapiens), sequence (P0DMS8 whole entry): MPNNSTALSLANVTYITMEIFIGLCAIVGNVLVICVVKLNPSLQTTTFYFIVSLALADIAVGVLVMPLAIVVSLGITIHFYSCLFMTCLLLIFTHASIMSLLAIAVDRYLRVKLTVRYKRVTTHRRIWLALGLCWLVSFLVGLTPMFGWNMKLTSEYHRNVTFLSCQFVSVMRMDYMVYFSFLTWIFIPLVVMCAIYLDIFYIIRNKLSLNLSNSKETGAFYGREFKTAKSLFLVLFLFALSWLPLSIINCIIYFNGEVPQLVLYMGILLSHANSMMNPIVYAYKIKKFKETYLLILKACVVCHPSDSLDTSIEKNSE
Delta-type opioid receptor (Homo sapiens), sequence (P41143 whole entry): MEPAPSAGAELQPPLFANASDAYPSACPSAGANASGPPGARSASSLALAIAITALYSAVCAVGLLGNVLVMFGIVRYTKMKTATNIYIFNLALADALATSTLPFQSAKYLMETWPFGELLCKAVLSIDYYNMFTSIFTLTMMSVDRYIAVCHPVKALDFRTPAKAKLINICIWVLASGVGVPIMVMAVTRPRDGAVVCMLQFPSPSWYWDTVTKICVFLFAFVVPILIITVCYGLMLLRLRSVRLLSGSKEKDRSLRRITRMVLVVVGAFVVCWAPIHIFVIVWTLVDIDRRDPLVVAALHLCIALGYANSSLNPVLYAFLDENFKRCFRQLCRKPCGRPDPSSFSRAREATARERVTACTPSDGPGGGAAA
Platelet-activating factor receptor (Homo sapiens), sequence (P25105 whole entry): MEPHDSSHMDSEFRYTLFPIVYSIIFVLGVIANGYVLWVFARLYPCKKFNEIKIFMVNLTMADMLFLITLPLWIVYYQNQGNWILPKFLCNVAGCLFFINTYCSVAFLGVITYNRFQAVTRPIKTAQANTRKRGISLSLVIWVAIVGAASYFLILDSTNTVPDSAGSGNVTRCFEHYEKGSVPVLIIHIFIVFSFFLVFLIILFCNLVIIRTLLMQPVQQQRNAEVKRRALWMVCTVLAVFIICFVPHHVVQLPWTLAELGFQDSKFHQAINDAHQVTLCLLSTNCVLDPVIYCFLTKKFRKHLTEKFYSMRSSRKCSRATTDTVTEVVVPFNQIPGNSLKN

With `CN(Cc1ccccc1)C(=O)[C@@H](NC(=O)c1cc2cc(NC(=O)c3ccccc3-c3ccc(C(F)(F)F)cc3)ccc2n1C)c1ccccc1` [DIRLOTAPIDE] the half-life at 0.5 µM (CYP2C9) was 0.783 h, the blood plasma ratio [1] was 0.54 and the Activity [2] was “inactive”. For the same molecule, the AUC(0-inf) [3] was 703 ng·h/mL, the Activity (Homo sapiens [4]) was “inactive” and the Tmax [5] was 6 h. The Activity (Canis familiaris [6]) was 18.8%, the Activity [7] was “inactive” and the Vd [8] was 3.3 L/kg. The Activity [9] was “inactive”, the half-life [10] was 6.7 h and the Activity (Homo sapiens [11]) was “inactive”. It also gave an AUC(0-inf) [12] of 663 ng·h/mL, an IC50 (Cytochrome P450 3A4) greater than 30 µM and a Tmax [13] of 2.8 h. It also gave an ED25 (Mus musculus) of 6 mg/kg, an Activity (Canis familiaris [14]) of 54% and a Cmax [15] of 31.1 ng/mL. The IC50 (Cytochrome P450 2C19) was greater than 30 µM, the Activity (Homo sapiens [16]) was “inactive” and the Activity [17] was “inactive”. The half-life [18] was 5.9 h, the Papp A→B at 1 µM [19] was 0.9 ×10⁻⁶ cm/s and the Activity [20] was “inactive”. The AUC(0-t) [21] was 1490 ng·h/mL, the Activity [22] was “inactive” and the half-life [23] was 6.3 h. For the same molecule, the Activity [24] was “inactive”, the AUC(0-inf) [25] was 2820 ng·h/mL and the half-life at 0.5 µM (CYP2C19) was 1.17 h. For the same molecule, the Activity [26] was “inactive”, the clearance [27] was 12 mL/min/kg and the Fu (Plasma) was 0.032%. The half-life [28] was 6.8 h, the bioavailability [29] was 1% and the clearance [30] was 4.7 mL/min/kg. The bioavailability [31] was 43%, the AUC(0-inf) [32] was 55 ng·h/mL and the Activity [33] was “inactive”. The Papp B→A at 1 µM [34] was 0.4 ×10⁻⁶ cm/s, the half-life [35] was 14 h and the clearance [36] was 37 mL/min/kg. It also gave a clearance [37] of 7.6 mL/min/kg, a Vd [38] of 8 L/kg and an Activity (Canis familiaris [39]) of 51%. The Activity [40] was “inactive”, the Activity [41] was “inactive” and the AUC(0-t) [42] was 5610 ng·h/mL. For the same molecule, the AUC(0-inf) [43] was 1930 ng·h/mL, the Activity [44] was “inactive” and the half-life [45] was 2 h. For the same molecule, the Activity (Homo sapiens [46]) was “inactive”, the Vd [47] was 1 L/kg and the Cmax [48] was 27 ng/mL. The Activity [49] was “inactive”, the Activity (Homo sapiens [50]) was “inactive” and the Activity [51] was “Not Active”. For the same molecule, the Cmax [52] was 21 ng/mL, the AUC(0-inf) [53] was 40.7 ng·h/mL and the CLint scaled [54] was 91 mL/min/kg. The clearance [55] was 14 mL/min/kg.
